Reference: patent US20240182466A1, “A Crystal Form of a Fluorine-substituted Pyridopyrazole Compound and a Preparation Method Thereof” (JUMBO DRUG BANK CO., LTD, priority 2021, published 2024)

Tests used:
[1] = Solid stability test of crystal form (XRPD); assay type: physicochemical; details: influencing factors and accelerated conditions
Procedure: According to the “Guiding Principles for Stability Test of Raw Materials and Preparations” (General Rule 9001 of Part Four of the Chinese Pharmacopoeia 2015 Edition), the stability of the crystal form A of the compound in Formula (I) was investigated under influencing factors ((high temperature (60° C., open), high humidity (room temperature/relative humidity 92.5%, open), strong light (visible light intensity of 5000 lux and ultraviolet intensity of […], open), and accelerated conditions (40° C./75% RH, open) and (60° C./75% RH, open)).
About 20 mg of the crystal form A of the compound in Formula (I) was weighed respectively, and it was placed at the bottom of a glass sample bottle, and spread into a thin layer. Its sample was completely exposed for sampling. The samples placed under different conditions were sampled for testing (XRPD) on day 5, day 10, 1 month, 2 months, and 3 months.

[2] = Hygroscopicity by dynamic vapor sorption (DVS); assay type: physicochemical; details: 80% RH/25° C.
Procedure: Instrument model: SMS DVS Intrinsic Plus dynamic steam adsorption instrument.
Test condition: a sample (10-20 mg) is taken and placed in a DVS sample tray for testing.
Detailed DVS parameters are as follows:
Balance: dm/dt=0.002%/min (minimum: 10 min, and maximum: 180 min).
Drying: it is dried at 0% relative humidity (RH) until dm/dt≤0.002%/min or maximum 180 min.
RH (%) test step range: 0%-95%-0%.
SMS DVS Intrinsic Plus dynamic steam adsorption instrument.
A sample (10-20 mg) was taken and placed in a DVS sample tray for testing.

BTK = BTK (Homo sapiens (Human), UniProt Q06187); assay: BTK kinase test (33P-ATP filter binding); assay type: biochemical; details: 120 min at room temperature
Procedure: (§1) Experimental example 1: EGFR, ITK, TEC, and BTK kinase'test.
(§2) Buffer condition: 20 mM HEPES(pH 7.5), 10 mM MgCl2, 1 mM EGTA, 0.02% Brij35, 0.02 mg/mL BSA, 0.1 mm Na3VO4, 2 mm; DTT, 1% DMSO.
(§3) 2.1. An indicator substrate was prepared in a reaction buffer prepared newly.
(§4) 2.2. A cofactor required was transferred to the substrate solution above.
(§5) 2.3. A kinase indicated was injected into the substrate solution and mixed gently.
(§6) 2.4. An acoustic technology was used to convey a compound in DMSO to a kinase reaction mixture (Echo550).
(§7) 2.5. ^33P-ATP (specific activity 0.01 μci/μL, finally) was fed into the reaction mixture to initiate a reaction. (ATP final concentrations were 2 μM, 5 μM, and 5 μM respectively).
(§8) 2.6. The kinase reaction was incubated at room temperature for 120 min.
(§9) 2.7. The reaction was recorded on P81 ion exchange paper (Whatman #3698-915).
(§10) 2.8. 0.75% phosphoric acid was widely used to clean a filter.
(§11) 2.9. The remaining radioactive phosphorylation substrate on filter paper was measured.
(§12) 3. Data analysis: the kinase activity data was expressed as a percentage of the remaining kinase activity in the test sample compared to the carrier (dimethyl sulfoxide) reaction. The IC50 value and curve fitting were obtained by using Prism4 software (GraphPad).

EGFR = EGFR (Homo sapiens (Human), UniProt P00533); assay: EGFR kinase test (33P-ATP filter binding); assay type: biochemical
Procedure: as §1, §2, §3, §4, §5, §6, §7, §8, §9, §10, §11, §12

TEC = TEC (Homo sapiens (Human), UniProt P42680); assay: TEC kinase test (33P-ATP filter binding); assay type: biochemical
Procedure: as §1, §2, §3, §4, §5, §6, §7, §8, §9, §10, §11, §12

ITK = ITK (Homo sapiens (Human), UniProt Q08881); assay: ITK kinase test (33P-ATP filter binding); assay type: biochemical
Procedure: as §1, §2, §3, §4, §5, §6, §7, §8, §9, §10, §11, §12

[3] = 33P-ATP, 120 min at room temperature

Sequence of TEC (P42680 whole entry): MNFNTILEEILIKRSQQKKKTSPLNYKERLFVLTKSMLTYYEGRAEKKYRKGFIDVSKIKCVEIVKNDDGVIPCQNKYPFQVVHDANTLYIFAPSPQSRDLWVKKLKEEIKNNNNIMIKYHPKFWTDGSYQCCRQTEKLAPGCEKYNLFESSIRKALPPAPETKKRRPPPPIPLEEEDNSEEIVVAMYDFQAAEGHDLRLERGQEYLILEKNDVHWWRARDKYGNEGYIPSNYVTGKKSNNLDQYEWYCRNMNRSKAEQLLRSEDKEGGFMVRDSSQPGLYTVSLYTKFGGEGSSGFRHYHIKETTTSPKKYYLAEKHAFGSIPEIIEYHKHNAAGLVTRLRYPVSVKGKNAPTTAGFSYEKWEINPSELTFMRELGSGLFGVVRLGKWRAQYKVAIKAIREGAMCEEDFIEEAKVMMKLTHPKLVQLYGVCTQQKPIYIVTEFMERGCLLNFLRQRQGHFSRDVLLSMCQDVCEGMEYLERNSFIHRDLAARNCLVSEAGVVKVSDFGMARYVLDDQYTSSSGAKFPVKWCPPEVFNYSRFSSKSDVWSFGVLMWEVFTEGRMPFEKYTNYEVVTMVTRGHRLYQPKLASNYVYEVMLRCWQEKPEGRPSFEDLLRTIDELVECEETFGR
Sequence of ITK (Q08881 whole entry): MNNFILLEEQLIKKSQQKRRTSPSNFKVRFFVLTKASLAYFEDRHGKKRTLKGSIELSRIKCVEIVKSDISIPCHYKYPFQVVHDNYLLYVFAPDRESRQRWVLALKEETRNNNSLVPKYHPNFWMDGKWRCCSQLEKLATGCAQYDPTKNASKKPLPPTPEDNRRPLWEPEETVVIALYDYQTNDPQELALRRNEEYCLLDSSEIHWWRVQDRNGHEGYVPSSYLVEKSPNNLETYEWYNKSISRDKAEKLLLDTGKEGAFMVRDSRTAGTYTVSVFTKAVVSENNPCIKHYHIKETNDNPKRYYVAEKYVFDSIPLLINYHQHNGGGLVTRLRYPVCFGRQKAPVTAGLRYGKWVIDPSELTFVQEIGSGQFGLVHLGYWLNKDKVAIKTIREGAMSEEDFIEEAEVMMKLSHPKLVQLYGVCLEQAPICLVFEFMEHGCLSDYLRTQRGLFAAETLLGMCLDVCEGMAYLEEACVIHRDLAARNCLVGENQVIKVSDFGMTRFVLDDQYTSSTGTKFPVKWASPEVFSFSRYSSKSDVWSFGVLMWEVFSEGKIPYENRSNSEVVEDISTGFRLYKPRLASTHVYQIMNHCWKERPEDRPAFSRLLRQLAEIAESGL
Sequence of EGFR (P00533 25-1210): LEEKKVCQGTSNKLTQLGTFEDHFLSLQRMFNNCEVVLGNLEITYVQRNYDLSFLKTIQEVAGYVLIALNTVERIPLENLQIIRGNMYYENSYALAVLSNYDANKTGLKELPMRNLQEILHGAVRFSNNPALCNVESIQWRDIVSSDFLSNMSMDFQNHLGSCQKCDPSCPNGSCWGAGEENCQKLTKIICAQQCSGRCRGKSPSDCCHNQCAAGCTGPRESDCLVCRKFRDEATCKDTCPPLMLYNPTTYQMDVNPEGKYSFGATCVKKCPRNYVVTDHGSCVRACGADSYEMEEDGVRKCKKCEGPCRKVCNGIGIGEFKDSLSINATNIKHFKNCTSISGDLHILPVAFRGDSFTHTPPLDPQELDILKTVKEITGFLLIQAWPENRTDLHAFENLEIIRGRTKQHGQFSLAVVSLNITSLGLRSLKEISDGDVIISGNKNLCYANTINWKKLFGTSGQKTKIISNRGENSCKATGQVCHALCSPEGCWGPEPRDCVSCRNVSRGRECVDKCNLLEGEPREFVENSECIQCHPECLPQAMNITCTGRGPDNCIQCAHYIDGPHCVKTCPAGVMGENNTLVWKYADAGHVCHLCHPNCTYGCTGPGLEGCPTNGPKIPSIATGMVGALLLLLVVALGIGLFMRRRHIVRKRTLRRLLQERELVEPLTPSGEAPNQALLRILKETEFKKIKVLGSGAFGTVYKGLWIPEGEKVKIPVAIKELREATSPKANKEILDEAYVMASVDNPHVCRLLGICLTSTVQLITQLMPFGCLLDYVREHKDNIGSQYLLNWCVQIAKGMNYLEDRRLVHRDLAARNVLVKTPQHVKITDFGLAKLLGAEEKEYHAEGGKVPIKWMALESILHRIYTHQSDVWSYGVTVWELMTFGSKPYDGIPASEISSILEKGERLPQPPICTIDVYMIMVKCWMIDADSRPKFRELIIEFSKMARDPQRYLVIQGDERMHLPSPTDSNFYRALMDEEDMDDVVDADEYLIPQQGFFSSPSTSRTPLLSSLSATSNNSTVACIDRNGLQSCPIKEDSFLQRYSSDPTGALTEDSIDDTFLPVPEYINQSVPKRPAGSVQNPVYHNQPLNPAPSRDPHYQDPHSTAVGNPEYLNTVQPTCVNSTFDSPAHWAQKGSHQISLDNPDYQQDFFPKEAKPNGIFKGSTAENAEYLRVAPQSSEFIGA
Sequence of BTK (Q06187 whole entry): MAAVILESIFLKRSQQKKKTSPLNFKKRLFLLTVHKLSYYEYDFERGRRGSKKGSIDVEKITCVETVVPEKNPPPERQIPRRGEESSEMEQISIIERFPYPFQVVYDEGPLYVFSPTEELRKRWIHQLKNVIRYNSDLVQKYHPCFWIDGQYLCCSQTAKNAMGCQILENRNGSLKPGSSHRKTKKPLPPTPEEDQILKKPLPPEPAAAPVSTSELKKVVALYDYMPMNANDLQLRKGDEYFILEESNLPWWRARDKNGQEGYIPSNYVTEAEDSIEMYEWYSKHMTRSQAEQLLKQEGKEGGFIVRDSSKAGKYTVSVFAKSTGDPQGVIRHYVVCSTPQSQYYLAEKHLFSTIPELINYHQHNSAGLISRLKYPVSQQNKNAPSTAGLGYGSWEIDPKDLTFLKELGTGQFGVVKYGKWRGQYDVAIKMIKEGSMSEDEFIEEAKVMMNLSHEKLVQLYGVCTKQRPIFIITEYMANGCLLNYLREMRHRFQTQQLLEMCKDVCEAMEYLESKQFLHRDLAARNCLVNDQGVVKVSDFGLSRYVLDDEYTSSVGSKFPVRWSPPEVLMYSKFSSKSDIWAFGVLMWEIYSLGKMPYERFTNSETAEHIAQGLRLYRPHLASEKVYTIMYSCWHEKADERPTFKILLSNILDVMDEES

Row | Solid stability, conclusion in words [1] | Hygroscopic classification [2] | ΔW, hygroscopic weight increase [2] [%] | Structure (SMILES) | IC50 (BTK) [nM] | IC50 (EGFR; [3]) [nM] | EGFR, ITK, TEC, and BTK activity ratio: EGFR to BTK (EGFR; IC50 EGFR / IC50 BTK) | IC50 (TEC; [3]) [nM] | EGFR, ITK, TEC, and BTK activity ratio: TEC to BTK (TEC; IC50 TEC / IC50 BTK) [times] | IC50 (ITK; [3]) [nM] | EGFR, ITK, TEC, and BTK activity ratio: ITK to BTK (ITK; IC50 ITK / IC50 BTK)
1 | good stability | slight hygroscopicity | 0.23 | C=CC(=O)N1CCC[C@@H](c2nn(-c3ccc(Oc4cccc(F)c4F)cc3)c3cncc(F)c23)C1 | – | – | – | – | – | – | –
2 | – | – | – | C=CC(=O)N1CCC[C@H](c2nn(-c3ccc(Oc4cccc(F)c4F)cc3)c3cncc(F)c23)C1 (single isomer, unassigned) [Compound 1B] | 2.16 | 829 | 383 times, | 74.8 | 34 | 5430 | 2513 times,
